Measurements as given in ChEMBL document CHEMBL5143711, “Glenthmycins A-M: Macrocyclic Spirotetronate Polyketide Antibacterials from the Australian Pasture Plant-Derived Streptomyces sp. CMB-PB041” (J Nat Prod, 2022).
pIC50: −log10 of the molar value.

Tested on: Mycobacterium tuberculosis variant bovis
Assay: Antibacterial activity against Mycobacterium bovis BCG ATCC 35741 incubated for 16 to 24 hrs by broth microdilution based spectrophotometric analysis
Assay type: functional, organism-based

Compound | pIC50
COc1cc(C)c(C(=O)O[C@H]2[C@@H](O)[C@@H](O)[C@H](O[C@H]3CC[C@H](C)[C@@H]4[C@@H]3C=C(C)[C@H]3/C(C)=C/CC/C(C)=C/[C@]5(C)C=C(C(=O)O)[C@H](C)C[C@]56OC(=O)C(=C6O)C(=O)[C@@]43C)O[C@@H]2C)c(O)c1 | < 4.52
COc1cc(C)c(C(=O)O[C@H]2[C@H](O[C@H]3CC[C@H](C)[C@@H]4[C@@H]3C=C(C)[C@H]3/C(C)=C/CC/C(C)=C/[C@]5(C)C=C(C(=O)O)[C@H](C)C[C@]56OC(=O)C(=C6O)C(=O)[C@@]43C)O[C@H](C)[C@@H](O)[C@H]2O)c(O)c1 | < 4.52
CC(=O)O[C@H]1CC[C@H](C)[C@@H]2[C@@H]1C=C(C)[C@H]1/C(C)=C/CC/C(C)=C/[C@]3(C)C=C(C)[C@H](C)C[C@]34OC(=O)C(=C4O)C(=O)[C@@]21C | < 4.52
CC1=C[C@@]2(C)/C=C(\C)CC/C=C(\C)[C@@H]3C(C)=C[C@H]4[C@@H]([C@@H](C)CC[C@@H]4O)[C@]3(C)C(=O)C3=C(O)[C@@]2(C[C@H]1C)OC3=O | < 4.52
COc1cc(C)c(C(=O)O[C@H]2[C@@H](O)[C@H](O[C@H]3CC[C@H](C)[C@@H]4[C@@H]3C=C(C)[C@H]3/C(C)=C/CC/C(C)=C/[C@]5(C)C=C(C(=O)O)[C@H](C)C[C@]56OC(=O)C(=C6O)C(=O)[C@@]43C)O[C@H](C)[C@H]2O)c(O)c1 | < 4.52
COc1cc(C)c(C(=O)N[C@@H]2[C@@H](C)O[C@@H](O[C@H]3CC[C@H](C)[C@@H]4[C@@H]3C=C(C)[C@H]3/C(C)=C/CC/C(C)=C/[C@]5(C)C=C(C(=O)O)[C@H](C)C[C@]56OC(=O)C(=C6O)C(=O)[C@@]43C)[C@H](O)[C@]2(C)O)c(O)c1 | < 4.52
COc1cc(C)c(C(=O)O[C@H]2[C@H](O[C@H]3CC[C@H](C)[C@@H]4[C@@H]3C=C(C)[C@H]3/C(C)=C/CC/C(C)=C/[C@@H]5C=C(C(=O)O)[C@H](C)C[C@]56OC(=O)C(=C6O)C(=O)[C@@]43C)O[C@H](C)[C@@H](O)[C@H]2O)c(O)c1 | < 4.52
COc1cc(C)c(C(=O)O[C@H]2[C@@H](O)[C@@H](O)[C@H](O[C@H]3CC[C@H](C)[C@@H]4[C@@H]3C=C(C)[C@H]3/C(C)=C/CC/C(C)=C/[C@]5(C)C=C(C(=O)O)[C@H](C)C[C@]56OC(=O)C(=C6O)C(=O)[C@@]43C)O[C@@H]2C)c(OC)c1 | < 4.52
COc1cc(C)c(C(=O)N[C@@H]2[C@@H](C)O[C@@H](O[C@H]3CC[C@H](C)[C@@H]4[C@@H]3C=C(C)[C@H]3/C(C)=C/CC/C(C)=C/[C@@H]5C=C(C(=O)O)[C@H](C)C[C@]56OC(=O)C(=C6O)C(=O)[C@@]43C)[C@H](O)[C@]2(C)O)c(O)c1 | < 4.52
COc1cc(C)c(C(=O)O[C@H]2[C@@H](O)[C@H](O[C@H]3CC[C@H](C)[C@@H]4[C@@H]3C=C(C)[C@H]3/C(C)=C/CC/C(C)=C/[C@@H]5C=C(C(=O)O)[C@H](C)C[C@]56OC(=O)C(=C6O)C(=O)[C@@]43C)O[C@H](C)[C@H]2O)c(O)c1 | < 4.52
COc1cc(C)c(C(=O)O[C@H]2[C@@H](O)[C@@H](O)[C@H](O[C@H]3CC[C@H](C)[C@@H]4[C@@H]3C=C(C)[C@H]3/C(C)=C/CC/C(C)=C/[C@@H]5C=C(C(=O)O)[C@H](C)C[C@]56OC(=O)C(=C6O)C(=O)[C@@]43C)O[C@@H]2C)c(O)c1 | < 4.52
CC(=O)O[C@H]1CC[C@H](C)[C@@H]2[C@@H]1C=C(C)[C@H]1/C(C)=C/CC/C(C)=C/[C@@H]3C=C(C)[C@H](C)C[C@]34OC(=O)C(=C4O)C(=O)[C@@]21C | < 4.52
